Laboratory results published in patent US20260256830A1, “PERITONEAL DIALYSIS FLUID” (ZYTOPROTEC FLEXIBLE KAPITALGESELLSCHAFT, priority 2022, published 2026).
Peptide text beside a SMILES is read from it.

Experiment: Long-term stability of AGD in alkaline solution (amino acid analysis)
Type: physicochemical
Conditions: 52 weeks; for AGD, % of original amount after storage: 25° C./60% rH
Experimental: The long-term stability tests of AGD in an alkaline solution according to the present invention have been performed. […] The pH of each sample was adjusted with 1 M NaOH. Aliquots of each sample were prepared under controlled conditions and stored under the defined conditions at 25° C./60% rH. Sterilization was performed under following conditions: The stability of AGD has been investigated by AS analysis. Analysis was performed by […] amino acid analysis with JEX and post column derivatization with Ninhydrine.

- decrease of the AGD, of original amount (both samples (pH 7.4 and 7.8), storage at 25° C./60% rH): less than 5%
- AGD, % of original amount after storage (sample with pH-value of 7.4): 98%
- AGD, % of original amount after storage (sample with pH-value of 7.8): > 95%
SMILES: C[C@H](N)C(=O)N[C@@H](CCC(N)=O)C(=O)O [AGD, L-alanyl-L-glutamine] (H-Ala-Gln-OH)
